In US8389513B2, “2-amino-5,5-difluoro-5,6-dihydro-4H-[1,3]oxazin-4-yl)-phenyl]-amides” (Hoffmann-La Roche Inc., priority 2009, dated 2013):
Structures can show the parent of a compound that is named as a salt.

What was measured:
BACE1 = target: T1, BACE1 (Homo sapiens, UniProt P56817); assay: Cellular Aβ-lowering assay (Aβ40 ELISA); type: cell-based; details: HEK293 cells stably expressing human APP695; Aβ40 in culture supernatant; read-out: BACE1 cell act. Aβ40 IC50
T1 construct: Human HEK293 cells which are stably transfected with a vector expressing a cDNA of the human APP wt gene (APP695); endogenous in cells; host or cells: HEK293 stably transfected with human APP695 wt
T1 sequence (P56817 46-501): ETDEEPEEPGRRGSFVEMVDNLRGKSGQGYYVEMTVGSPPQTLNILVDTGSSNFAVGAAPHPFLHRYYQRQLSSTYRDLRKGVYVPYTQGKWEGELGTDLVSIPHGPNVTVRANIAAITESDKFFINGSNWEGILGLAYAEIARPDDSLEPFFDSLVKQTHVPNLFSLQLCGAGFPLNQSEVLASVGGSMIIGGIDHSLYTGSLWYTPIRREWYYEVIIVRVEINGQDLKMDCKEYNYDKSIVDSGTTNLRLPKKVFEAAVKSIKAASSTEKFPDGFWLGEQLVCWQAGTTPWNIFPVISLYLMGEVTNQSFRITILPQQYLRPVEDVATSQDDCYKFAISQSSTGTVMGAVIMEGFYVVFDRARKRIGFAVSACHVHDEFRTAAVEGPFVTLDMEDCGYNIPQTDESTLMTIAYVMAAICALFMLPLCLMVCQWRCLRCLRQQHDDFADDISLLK
Procedure: Cellular Aβ-Lowering Assay:
Human HEK293 cells which are stably transfected with a vector expressing a cDNA of the human APP wt gene (APP695) were used to assess the potency of the compounds in a cellular assay. The cells were seeded in 96-well microtiter plates in cell culture medium (Iscove, plus 10% (v/v) fetal bovine serum, glutamine, penicillin/streptomycin) to about 80% confluence and the compounds were added at a 10× concentration in 1/10 volume of medium without FCS containing 8% DMSO (final concentration of DMSO was kept at 0.8% v/v). After 18-20 hrs incubation at 37° C. and 5% CO2 in a humidified incubator the culture supernatant was harvested for the determination of Aβ40 concentrations. […] Subsequently the wells of the microtiter plate were washed extensively with Tris-buffered saline containing 0.05% Tween 20 and the assay was developed with tetramethylbenzidine/H2O2 in citric acid buffer. After stopping the reaction with one volume 1 NH2SO4 the reaction was measured in an ELISA reader at 450 nm wavelength. The concentrations of Aβ in the culture supernatants were calculated from a standard curve obtained with known amounts of pure Aβ peptide.

BACE2 = target: T2, BACE2 (Rattus norvegicus, UniProt Q6IE75); assay: Assay for BACE inhibition by measuring cellular TMEM27 cleavage; type: cell-based; details: INS-TMEM27 cells (INS1e-derived); shed TMEM27 by ELISA; read-out: BACE2 cell act. IC50
T2 construct: endogenous cellular BACE2 in the Ins1e rat cell line; endogenous in cells; host or cells: INS-TMEM27 (INS1e-derived rat cell line with TetOn-inducible full-length hTMEM27)
T2 sequence (Q6IE75 63-514): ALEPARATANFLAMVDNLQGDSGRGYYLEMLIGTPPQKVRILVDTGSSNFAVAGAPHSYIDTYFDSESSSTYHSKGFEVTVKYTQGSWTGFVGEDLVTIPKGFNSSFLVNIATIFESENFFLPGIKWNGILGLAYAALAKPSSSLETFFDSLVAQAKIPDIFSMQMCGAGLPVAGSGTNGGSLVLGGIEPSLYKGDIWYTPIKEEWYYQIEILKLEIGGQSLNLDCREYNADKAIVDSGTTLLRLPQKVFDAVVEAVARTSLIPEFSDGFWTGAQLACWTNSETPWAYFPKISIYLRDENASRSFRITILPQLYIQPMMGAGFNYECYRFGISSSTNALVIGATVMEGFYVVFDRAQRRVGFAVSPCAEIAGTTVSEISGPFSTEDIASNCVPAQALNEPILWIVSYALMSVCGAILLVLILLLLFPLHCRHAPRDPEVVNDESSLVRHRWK
From the text: Assay for BACE Inhibition by Measuring Cellular TMEM27 Cleavage:
The assay uses the principle of inhibition of human TMEM27 cleavage by endogenous cellular BACE2 in the Ins1e rat cell line and shedding from the cell surface into the culture medium, followed by detection in an ELISA assay. Inhibition of BACE2 prevents the cleavage and shedding in a dose-dependent manner.
The stable cell line “INS-TMEM27” represents an INS1e-derived cell line with inducible expression (using the TetOn system) of full-length hTMEM27 in a doxycycline-dependent manner. The cells are cultured throughout the experiment in RPMI1640+Glutamax (Invitrogen) Penicillin/Streptomycin, 10% Fetal bovine serum, […] pyruvate, […] beta-mercatptoethanol, 100 micrograms/ml G418 and 100 microgram/ml hygromycin and are grown inadherent culture at 37° C. in a standard CO2 cell culture incubator. INS-TMEM27 cells are seeded in 96-well plates. After 2 days in culture, BACE2 inhibitor is added in a range of concentrations as required by the assay and after a further two hours, doxycycline is added to a final concentration of 500 ng/ml. The cells are incubated for a further 46 hours and the supernatant harvested for detection of shed TMEM27.
An ELISA assay (using a pair of mouse anti-human-TMEM27 antibodies, raised against the extracellular domain of TMEM27) is used for detection of TMEM27 in the culture medium. An EC50 for BACE2 inhibition is calculated using the ELISA readout for each inhibitor concentration with standard curve-fitting software such as XLFit for the Excel spreadsheet program.

| IC50 (BACE1) [nM] | IC50 (BACE2) [nM] | Structure (SMILES) |
| --- | --- | --- |
| 100 |  | CCn1cc(Cl)c(C(=O)Nc2ccc(F)c([C@@]3(C)N=C(N)OCC3(F)F)c2)n1 [Example 77, 4-Chloro-1-ethyl-1H-pyrazole-3-carboxylic acid [3-((R)-2-amino-5,5-difluoro-4-methyl-5,6-dihydro-4H-[1,3]oxazin-4-yl)-4-fluoro-phenyl]-amide] |
| 910 |  | C[C@]1(c2cc(NC(=O)/C=C/c3ccco3)ccc2F)N=C(N)OCC1(F)F [Example 82, (E)-N-[3-((R)-2-Amino-5,5-difluoro-4-methyl-5,6-dihydro-4H-[1,3]oxazin-4-yl)-4-fluoro-phenyl]-3-furan-2-yl-acrylamide] |
| 200 |  | CC1(C)OC(N)=N[C@](C)(c2cc(NC(=O)c3ccc(OCC(F)F)cn3)ccc2F)C1(F)F [Example 28, 5-(2,2-Difluoro-ethoxy)-pyridine-2-carboxylic acid [3-((R)-2-amino-5,5-difluoro-4,6,6-trimethyl-5,6-dihydro-4H-[1,3]oxazin-4-yl)-4-fluoro-phenyl]-amide] |
| 180 |  | CC(=O)Nc1ccc(F)c([C@@]2(C)N=C(N)OCC2(F)F)c1 [Example 73, N-[3-((R)-2-Amino-5,5-difluoro-4-methyl-5,6-dihydro-4H-[1,3]oxazin-4-yl)-4-fluoro-phenyl]-acetamide] |
| 230 |  | CC1(C)OC(N)=N[C@](C)(c2cc(NC(=O)c3ccc(OCC(F)(F)C(F)F)cn3)ccc2F)C1(F)F [Example 30, 5-(2,2,3,3-Tetrafluoro-propoxy)-pyridine-2-carboxylic acid [3-((R)-2-amino-5,5-difluoro-4,6,6-trimethyl-5,6-dihydro-4H-[1,3]oxazin-4-yl)-4-fluoro-phenyl]-amide] |
| 310 |  | C[C@]1(c2cc(NC(=O)c3ccc(C#N)c[n+]3[O-])ccc2F)N=C(N)OCC1(F)F [Example 83, 5-Cyano-1-oxy-pyridine-2-carboxylic acid [3-((R)-2-amino-5,5-difluoro-4-methyl-5,6-dihydro-4H-[1,3]oxazin-4-yl)-4-fluoro-phenyl]-amide] |
| 230 |  | C[C@]1(c2cc(NC(=O)c3ccc(C(N)=O)cn3)ccc2F)N=C(N)OCC1(F)F [Example 72] |
| 495 |  | C[C@]1(c2cc(NC(=O)c3cocn3)ccc2F)N=C(N)OCC1(F)F [Example 55, Oxazole-4-carboxylic acid [3-((R)-2-amino-5,5-difluoro-4-methyl-5,6-dihydro-4H-[1,3]oxazin-4-yl)-4-fluoro-phenyl]-amide] |
| 70 |  | C[C@]1(c2cc(NC(=O)c3cnc(OCC4CC4)cn3)ccc2F)N=C(N)OCC1(F)F [Example 46, 5-Cyclopropylmethoxy-pyrazine-2-carboxylic acid [3-((R)-2-amino-5,5-difluoro-4-methyl-5,6-dihydro-4H-[1,3]oxazin-4-yl)-4-fluoro-phenyl]-amide] |
| 1900 |  | C[C@]1(c2cc(NC(=O)c3ccc([N+](=O)[O-])o3)ccc2F)N=C(N)OCC1(F)F [Example 81, 5-Nitro-furan-2-carboxylic acid [3-((R)-2-amino-5,5-difluoro-4-methyl-5,6-dihydro-4H-[1,3]oxazin-4-yl)-4-fluoro-phenyl]-amide] |
| 3 |  | C[C@]1(c2cc(NC(=O)c3coc(CF)n3)ccc2F)N=C(N)OCC1(F)F [Example 79, 2-Fluoromethyl-oxazole-4-carboxylic acid [3-((R)-2-amino-5,5-difluoro-4-methyl-5,6-dihydro-4H-[1,3]oxazin-4-yl)-4-fluoro-phenyl]-amide formate] |
|  | 56 | C[C@]1(c2cc(NC(=O)c3ccc(F)cn3)ccc2F)N=C(N)OCC1(F)F [Example 2, 5-Fluoro-pyridine-2-carboxylic acid [3-((R)-2-amino-5,5-difluoro-4-methyl-5,6-dihydro-4H-[1,3]oxazin-4-yl)-4-fluoro-phenyl]-amide] |
| 1770 |  | C[C@]1(c2cc(NC(=O)c3nn(CC(F)(F)F)cc3Cl)ccc2F)N=C(N)OCC1(F)F [Example 78, 4-Chloro-1-(2,2,2-trifluoro-ethyl)-1H-pyrazole-3-carboxylic acid [3-((R)-2-amino-5,5-difluoro-4-methyl-5,6-dihydro-4H-[1,3]oxazin-4-yl)-4-fluoro-phenyl]-amide] |
|  | 24 | Cc1cc(Cl)cnc1C(=O)Nc1ccc(F)c([C@@]2(C)N=C(N)OCC2(F)F)c1 [Example 13, 5-Chloro-3-methyl-pyridine-2-carboxylic acid [3-((R)-2-amino-5,5-difluoro-4-methyl-5,6-dihydro-4H-[1,3]oxazin-4-yl)-4-fluoro-phenyl]-amide] |
| 2810 |  | CC1(C)OC(N)=N[C@](C)(c2cc(NC(=O)c3ccc(OCC4CC4)nc3)ccc2F)C1(F)F [Example 31, N-[3-((R)-2-Amino-5,5-difluoro-4,6,6-trimethyl-5,6-dihydro-4H-[1,3]oxazin-4-yl)-4-fluoro-phenyl]-6-cyclopropylmethoxy-nicotinamide] |
| 1480 |  | CCc1ocnc1C(=O)Nc1ccc(F)c([C@@]2(C)N=C(N)OCC2(F)F)c1 [Example 69, formate] |
| 460 |  | C[C@]1(c2cc(NC(=O)c3ccc(C#CC4CC4)cn3)ccc2F)N=C(N)OCC1(F)F [Example 40, 5-Cyclopropylethynyl-pyridine-2-carboxylic acid [3-((R)-2-amino-5,5-difluoro-4-methyl-5,6-dihydro-4H-[1,3]oxazin-4-yl)-4-fluoro-phenyl]-amide] |
| 305 |  | Cc1conc1C(=O)Nc1ccc(F)c([C@@]2(C)N=C(N)OCC2(F)F)c1 [Example 61, 4-Methyl-isoxazole-3-carboxylic acid [3-((R)-2-amino-5,5-difluoro-4-methyl-5,6-dihydro-4H-[1,3]oxazin-4-yl)-4-fluoro-phenyl]-amide] |
| 73 |  | C[C@]1(c2cc(NC(=O)c3coc(CCl)n3)ccc2F)N=C(N)OCC1(F)F [Example 57, 2-Chloromethyl-oxazole-4-carboxylic acid [3-((R)-2-amino-5,5-difluoro-4-methyl-5,6-dihydro-4H-[1,3]oxazin-4-yl)-4-fluoro-phenyl]-amide] |
| 140 |  | CCc1nc(C(=O)Nc2ccc(F)c([C@@]3(C)N=C(N)OCC3(F)F)c2)co1 [Example 56, 2-Ethyl-oxazole-4-carboxylic acid [3-((R)-2-amino-5,5-difluoro-4-methyl-5,6-dihydro-4H-[1,3]oxazin-4-yl)-4-fluoro-phenyl]-amide] |
|  | 15 | Cn1cc(Cl)c(C(=O)Nc2ccc(F)c([C@@]3(C)N=C(N)OCC3(F)F)c2)n1 [Example 18, 4-Chloro-1-methyl-1H-pyrazole-3-carboxylic acid [3-((R)-2-amino-5,5-difluoro-4-methyl-5,6-dihydro-4H-[1,3]oxazin-4-yl)-4-fluoro-phenyl]-amide] |
| 2460 |  | CC1(C)OC(N)=N[C@](C)(c2cc(NC(=O)c3cnc(OCC4CC4)cn3)ccc2F)C1(F)F [Example 36, 5-Cyclopropylmethoxy-pyrazine-2-carboxylic acid [3-((R)-2-amino-5,5-difluoro-4,6,6-trimethyl-5,6-dihydro-4H-[1,3]oxazin-4-yl)-4-fluoro-phenyl]-amide] |
| 6 |  | CC1(C)OC(N)=N[C@](C)(c2cc(NC(=O)c3ccn(C(F)F)n3)ccc2F)C1(F)F [Example 38, 1-Difluoromethyl-1H-pyrazole-3-carboxylic acid [3-((R)-2-amino-5,5-difluoro-4,6,6-trimethyl-5,6-dihydro-4H-[1,3]oxazin-4-yl)-4-fluoro-phenyl]-amide] |
